From patent US20070298026A1, “Methods for Identifying Treatment and Inducing Infertility Using Smc1-Beta” (MOUNT SINAI SCHOOL OF MEDICINE Office of Industrial Liaison, priority 2003, published 2007)
“Also recorded” adds a separate entry of the source.

Key:
SMC1β = SMC1β proteolysis/degradation assay in testis nuclear extracts (immunoblot); type: biochemical, mouse; conditions: for effect of added SMC1β protein fragment on degradation of SMC1β: increasing amounts of fragment added to testis nuclear extract, anti-SMC1β immunoblot
From the text: It is very likely, that phosphorylation and/or protein degradation play an important role in regulating the removal of SMC1β and its complex from meiotic chromosomes. Understanding this mechanism would fill a significant gap in our knowledge of the meiotic process and of regulation of SMC1β function. It is unlikely that association and dissociation of cohesins are regulated exclusively through Rec8, because Rec8 behaves differently from SMC1β and SMC3 (Eijpe et al., J. Cell Biol. 160:657-670,2003; and see below). As a first approach to address this question, a series of proteolysis assays were undertaken. In these assays, nuclear extracts from mouse testis were incubated under various conditions and investigated the intactness of SMC1β by immunoblotting.
To begin testing the effect of phosphorylation, nuclear extracts were prepared in the presence or absence of general phosphatase inhibitors (1 mM o-vanadate, 10 mM β-glycerophosphate). If a phosphorylated SMC1β is more prone to degradation, inhibited dephosphorylation should stimulate degradation. […] The effect of phosphatase inhibition can either be direct—on SMC1β phosphorylation—or indirect, i.e. on maintaining an activated state of the protease or of a regulator of the protease. The mechanism of phosphatase inhibition and the identification of enzymes that are involved are currently being examined.
Speculating that the 120-kDa product seen in degradation assays is a true intermediate of SMC1β degradation, two fragments of SMC1β that span either one of the two putative regions of cleavage, positioned at about 30 kDa distance from each of the termini, were subcloned and expressed in E. coli. Thus, an N-terminal or a C-terminal polypeptide of 33 or 35 kDa, respectively, was expressed and purified. While the N-terminal fragment was purified to near homogeneity (100 mM imidazole fraction), there were one major and a few minor contaminants in the C-terminal fragment preparation. The putative region of cleavage was identified at the center of these polypeptides (N-terminal fragment: amino acids 174 to 420; C-terminal fragment: amino acids 820 to 1073). These proteins were used in cleavage inhibition assays. […] Thus, there is early evidence for a cleavage site within the N-terminal region between amino acids 174 and 420, and the precise cleavage site is being determined.
In attempts to identify the protease cleavage site within SMC1β, N-terminal and C-terminal protein fragments of SMC1β were purified in increasing concentrations of imidazole in elution buffer and run on silver-stained SDS polyacrylamide gels. To assay degradation, increasing amounts of N- or C-terminal protein fragments were then added to a reaction containing extract incubated with and without competitor. Reactions were then separated eletrophoretically on SDS polyacrylamide gels, immunoblotted, and probed with anti-SMC1β antibody. […] Cleavage of the N-terminal fragment itself is currently being investigated.

Rec8 or STAG3 = experiment: Degradation of other cohesin subunits in testis nuclear extracts; type: biochemical, mouse; conditions: ATP added to testis nuclear extract
human PEP = molecular target: T1, human PEP (Homo sapiens, UniProt P48147); conditions: inhibitor from Calbiochem Inc.; cited from earlier work
T1 sequence (P48147 1-710): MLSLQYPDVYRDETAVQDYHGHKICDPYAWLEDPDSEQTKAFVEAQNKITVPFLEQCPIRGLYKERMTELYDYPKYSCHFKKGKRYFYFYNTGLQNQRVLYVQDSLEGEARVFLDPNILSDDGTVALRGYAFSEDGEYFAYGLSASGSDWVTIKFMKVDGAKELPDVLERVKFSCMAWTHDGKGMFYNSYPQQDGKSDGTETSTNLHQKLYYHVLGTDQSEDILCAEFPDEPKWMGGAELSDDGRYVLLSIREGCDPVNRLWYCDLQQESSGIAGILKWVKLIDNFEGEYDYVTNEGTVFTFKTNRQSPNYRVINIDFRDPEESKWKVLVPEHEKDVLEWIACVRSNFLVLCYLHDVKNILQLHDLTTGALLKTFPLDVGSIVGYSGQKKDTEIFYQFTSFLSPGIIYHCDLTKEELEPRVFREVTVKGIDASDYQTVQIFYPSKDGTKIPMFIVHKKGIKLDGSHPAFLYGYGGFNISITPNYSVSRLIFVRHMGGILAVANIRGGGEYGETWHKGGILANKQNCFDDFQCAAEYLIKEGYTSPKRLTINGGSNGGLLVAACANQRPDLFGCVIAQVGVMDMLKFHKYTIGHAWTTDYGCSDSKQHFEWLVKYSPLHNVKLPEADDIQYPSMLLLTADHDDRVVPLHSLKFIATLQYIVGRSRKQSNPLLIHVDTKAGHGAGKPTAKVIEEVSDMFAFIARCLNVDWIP

spermatocytes = experiment: Okadaic acid-induced premature transition of cultured spermatocytes into metaphase I; type: cell-based; conditions: wildtype mouse spermatocytes; 5 μM okadaic acid for 5 h
From the text: As a result, 20 bivalents, each with two pairs of unseparated, closely apposed sister kinetochores and at least one chiasma became visible. […] Co-staining for γ-H2AX, which decreases from zygotene to pachytene, allowed for determination of the stage at which the cells were exposed to OA. Cells with 80 centromere signals were of pachytene origin (no γ-H2AX), and cells with 40 centromere signals were of zygotene origin (patchy γ-H2AX).
Most antibodies used have been described (Eijpe et al., supra, 2000; Revenkova et al., supra, 2001; and 14. Eijpe et al., J. Cell Biol. 3,.657-670, 2003). Mouse anti-MLH1 was from BDPharMingen, rabbit-antiMLH1 from Calbiochem, and rabbit anti-SMC1α from Bethyl Labs Inc. Mouse anti-γH2AX was donated by A. Pastink, rabbit anti-SMC3 by J. -M. Peters, rabbit anti-RAP1 by T. de Lange, mouse anti-ATR by P. de Boer, mouse anti-MLH3 by P. Cohen, and goat anti-rat SCP3 by T. Ashley. Paraffin and frozen sections of mouse testis, and dry-down preparations of testis cell suspensions were prepared, incubated for immunocytochemistry and analyzed as described (Eijpe et al., supra, 2000;, Revenkova et al., supra, 2001; Eijpe et al., J. Cell Biol. 3, 657-670, 2003; Peters et al., Chromosome Res. 5:66-68, 1997). Mice were labeled in vivo with BrdU, and detected -the incorporated BrdU in sections and dry-down preparations as described before (Eijpe et al, supra, 2003). […]

[1] = system: type A spermatogonial cells; conditions: cited from earlier work

Nc1ncnc2c1ncn2[C@@H]1O[C@H](COP(=O)(O)OP(=O)(O)OP(=O)(O)O)[C@@H](O)[C@H]1O [ATP]
effect of ATP on SMC1β degradation (SMC1β; ATP added to testis nuclear extract): increased the efficiency of the reaction; also recorded: stimulates SMC1β degradation
effect of ATP on degradation of Rec8 or STAG3 (Rec8 or STAG3): not enhanced by addition of ATP, but rather inhibited

CC(C)(C)OC(=O)NC(CCC(=O)NOC(=O)c1ccccc1)C(=O)N1CCCC1 (stereo not shown) [Boc-Glu(NHO-Bz)-Pyr]
Ki (human PEP): 30 nM

C=C1[C@@H](O)[C@@H]2O[C@]3(CC[C@H](/C=C/[C@@H](C)[C@@H]4CC(C)=C[C@@]5(O[C@H](C[C@@](C)(O)C(=O)O)CC[C@H]5O)O4)O3)CC[C@H]2O[C@@H]1[C@@H](O)C[C@H](C)[C@H]1O[C@@]2(CCCCO2)CC[C@H]1C [OA, okadaic acid]
effect on chromosome condensation and cohesion (spermatocytes): caused premature chromosome condensation from mid-pachytene on, without affecting sister chromatid arm and centromere cohesion

stem cell factor: stem cell factor (SCF; kit ligand) added to induce meiosis in spermatogonial cultures
cells that are 4N ([1]; after 1 week of induction): 40%
total cell population that is haploid ([1]; after 3 weeks of induction): 58%

B1: C-terminal protein: SMC1β C-terminal fragment, amino acids 820 to 1073, 35 kDa polypeptide expressed in E. coli (protein, UniProt Q8NDV3 820-1073, looked up, fragment)
chain: QLEYSRSHLKKKLNKINTLKETIQKGSEDIDHLKKAEENCLQTVNELMAKQQQLKDIRVTQNSSAEKVQTQIEEERKKFLAVDREVGKLQKEVVSIQTSLEQKRLEKHNLLLDCKVQDIEIILLSGSLDDIIEVEMGTEAESTQATIDIYEKEEAFEIDYSSLKEDLKALQSDQEIEAHLRLLLQQVASQEDILLKTAAPNLRALENLKTVRDKFQESTDAFEASRKEARLCRQEFEQVKKRRYDLFTQCFEHV
effect of added SMC1β protein fragment on degradation of SMC1β (SMC1β): degradation was not affected

B2: N-terminal protein: SMC1β N-terminal fragment, amino acids 174 to 420, 33 kDa polypeptide expressed in E. coli (protein, UniProt Q8NDV3 174-420, looked up, fragment)
chain: KLQKAEEDAQFNFNKKKNIAAERRQAKLEKEEAERYQSLLEELKMNKIQLQLFQLYHNEKKIHLLNTKLEHVNRDLSVKRESLSHHENIVKARKKEHGMLTRQLQQTEKELKSVETLLNQKRPQYIKAKENTSHHLKKLDVAKKSIKDSEKQCSKQEDDIKALETELADLDAAWRSFEKQIEEEILHKKRDIELEASQLDRYKELKEQVRKKVATMTQQLEKLQWEQKTDEERLAFEKRRHGEVQGN
effect of added SMC1β protein fragment on degradation of SMC1β (SMC1β): inhibited the degradation of SMC1β
effect of added SMC1β protein fragment on degradation of SMC1β (SMC1β; listed as N-terminal 33-kDa fragment): identified as an inhibitor to protease cleavage
effect of added SMC1β protein fragment on degradation of SMC1β (SMC1β; listed as N-terminal peptide of SMC1β): inhibited specifically
